The text below walks through data of patent US8173682B2, “Substituted pyridones as inhibitors of poly(ADP-ribose) polymerase (PARP)” (Aventis Pharmaceuticals Inc., priority 2004, dated 2012).

The assay deals with T1, recombinant human PARP (PARP1) (Homo sapiens, UniProt P09874).
T1 construct: Full length human PARP (PARP1) is assembled from PCR fragments; His6 tag with TEV site, from the pFastBac-HTb vector (own knowledge of the vector); made in house; host or cells: insect cells, baculovirus (Bac-to-Bac, Gibco-BRL)
In words: PARP enzyme assay, Method A (radioactivity or 'ELISA' enzyme assay with partially purified enzyme). The assay is classed as biochemical. As to conditions: recombinant human PARP preparation, radioactive or ELISA enzyme assay. Summed up:
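Partially purified recombinant full-length His-tagged human PARP1, baculovirus-expressed. Radioactive format: 100 μg/mL sonicated DNA, 100 μg/mL histones, 100 mM Tris pH 8.0, 10 mM MgCl2, 200 μM labeled NAD, 10 min 37 °C or 60 min RT, TCA-precipitated counts. ELISA format: 250 μM NAD plus biotin-NAD on histone plates, TMB A450.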

Where a name gives a salt, the structure may show the parent alone.

T1 sequence (P09874 whole entry, the tested form may be a part): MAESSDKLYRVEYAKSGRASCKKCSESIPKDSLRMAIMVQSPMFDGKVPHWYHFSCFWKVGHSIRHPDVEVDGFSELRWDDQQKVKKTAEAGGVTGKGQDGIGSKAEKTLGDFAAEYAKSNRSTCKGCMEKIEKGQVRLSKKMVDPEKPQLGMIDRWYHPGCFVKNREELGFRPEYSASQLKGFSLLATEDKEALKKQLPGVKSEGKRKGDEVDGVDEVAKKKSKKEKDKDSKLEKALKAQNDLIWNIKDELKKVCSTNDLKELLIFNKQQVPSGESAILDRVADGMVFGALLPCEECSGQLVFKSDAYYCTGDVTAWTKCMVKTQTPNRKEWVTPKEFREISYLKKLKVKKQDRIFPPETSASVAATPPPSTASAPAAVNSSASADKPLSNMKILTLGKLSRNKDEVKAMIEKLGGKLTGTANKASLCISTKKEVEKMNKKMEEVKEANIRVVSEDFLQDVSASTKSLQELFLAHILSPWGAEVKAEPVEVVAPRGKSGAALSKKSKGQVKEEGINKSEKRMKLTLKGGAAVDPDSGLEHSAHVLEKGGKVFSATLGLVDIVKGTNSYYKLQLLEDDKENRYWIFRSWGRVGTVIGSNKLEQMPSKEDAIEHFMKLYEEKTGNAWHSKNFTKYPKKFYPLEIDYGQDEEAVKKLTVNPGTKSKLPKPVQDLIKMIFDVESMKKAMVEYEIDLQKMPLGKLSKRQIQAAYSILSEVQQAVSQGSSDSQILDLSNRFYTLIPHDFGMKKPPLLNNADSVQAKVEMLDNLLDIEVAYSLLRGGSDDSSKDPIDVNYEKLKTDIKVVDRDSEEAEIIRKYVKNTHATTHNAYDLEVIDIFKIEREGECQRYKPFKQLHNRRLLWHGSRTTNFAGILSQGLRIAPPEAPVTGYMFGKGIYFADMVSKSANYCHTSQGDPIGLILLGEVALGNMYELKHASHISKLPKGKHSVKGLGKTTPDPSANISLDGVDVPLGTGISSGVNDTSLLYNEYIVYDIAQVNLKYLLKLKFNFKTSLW

For the compound `CCc1cc(-c2ccc(S(=O)(=O)NCC3CCCO3)s2)c(C)[nH]c1=O` (stereo not shown) [Example 112, 5-(5-Ethyl-2-methyl-6-oxo-1,6-dihydropyridin-3-yl)thiophene-2-sulfonic acid (tetrahydrofuran-2-ylmethyl)amide], the 50% inhibitory concentration (IC50) amounted to 1.2 µM.

Consider `CCc1cc(-c2ccc(S(=O)(=O)NCC(C)O)s2)c(C)[nH]c1=O` (stereo not shown) [Example 113, 5-(5-Ethyl-2-methyl-6-oxo-1,6-dihydropyridin-3-yl)thiophene-2-sulfonic acid (2-hydroxypropyl)amide], for which the IC50 was determined as 0.9 µM.

For the compound `CCc1cc(-c2ccc(S(=O)(=O)NCC(O)c3ccccc3)s2)c(C)[nH]c1=O` (stereo not shown) [Example 114, 5-(5-Ethyl-2-methyl-6-oxo-1,6-dihydropyridin-3-yl)thiophene-2-sulfonic acid (2-hydroxy-2-phenylethyl)amide], the IC50 was found to be 0.37 µM.

As for `CCc1cc(-c2ccc(S(=O)(=O)N3CCN(c4ccccn4)CC3)s2)c(C)[nH]c1=O` [Example 116, 3-Ethyl-6-methyl-5-{5-[(4-pyridin-2-yl)piperazine-1-sulfonyl]thiophen-2-yl}-1H-pyridin-2-one hydrochloride], the IC50 was 0.45 µM.

As to `CCc1cc(-c2ccc(CN[C@H]3CC[C@H](O)CC3)s2)c(C)[nH]c1=O` [Example 125, 3-Ethyl-5-{5-[(4-hydroxycyclohexylamino)methyl]thiophen-2-yl]-6-methyl-1H-pyridin-2-one hydrochloride], the IC50 was determined as 0.45 µM.

As to `CCc1cc(-c2ccc(CN3CCC(O)CC3)s2)c(C)[nH]c1=O` [Example 127, 3-Ethyl-5-[5-(4-hydroxy-piperidin-1-ylmethyl)-thiophen-2-yl]-6-methyl-1H-pyridin-2-one hydrochloride], the IC50 came out at 0.67 µM.

As for `CCc1cc(-c2ccc(CNCCO)s2)c(C)[nH]c1=O` [Example 128, 3-Ethyl-5-{5-[(2-hydroxy-ethylamino)-methyl]thiophen-2-yl}-6-methyl-1H-pyridin-2-one hydrochloride], the IC50 came to 0.46 µM.

Regarding `CCc1cc(-c2ccc(CN3CCC(N4CCCCC4)CC3)s2)c(C)[nH]c1=O` [Example 129, 5-(5-[1,4′]Bipiperidinyl-1′-ylmethyl-thiophen-2-yl)-3-ethyl-6-methyl-1H-pyridin-2-one dihydrochloride], the IC50 was 1.8 µM.

Turning to `CCc1cc(-c2ccc(CNc3cc(C(=O)OC)n(C)c3)s2)c(C)[nH]c1=O` [Example 130, 4-{[5-(5-Ethyl-2-methyl-6-oxo-1,6-dihydro-pyridin-3-yl)-thiophen-2-ylmethyl]-amino}-1-methyl-1H-pyrrole-2-carboxylic acid methyl ester dihydrochloride], the IC50 stood at 1.2 µM.

`CCc1cc(-c2ccc(CN3CCCC(CO)C3)s2)c(C)[nH]c1=O` (stereo not shown) [Example 131, 3-Ethyl-5-[5-(3-hydroxymethyl-piperidin-1-ylmethyl)-thiophen-2-yl]-6-methyl-1H-pyridin-2-one hydrochloride]: the IC50 amounted to 0.47 µM.

Turning to `CCc1cc(-c2ccc(CNC3CCN(CC4CCCCC4)CC3)s2)c(C)[nH]c1=O` [Example 132, 5-{5-[(1-Cyclohexylmethyl-piperidin-4-ylamino)-methyl]thiophen-2-yl}-3-ethyl-6-methyl-1H-pyridin-2-one dihydrochloride], the IC50 was 1.3 µM.

Turning to `CCc1cc(-c2ccc(CN(C)C3CCN(C)C3)s2)c(C)[nH]c1=O` (stereo not shown) [Example 133, 5-{5-[Methyl(1-methylpyrrolidin-3-yl)amino-methyl]thiophen-2-yl}-3-ethyl-6-methyl-1H-pyridin-2-one dihydrochloride], the IC50 came out at 2.8 µM.

Take `CCc1cc(-c2ccc(CNC3CCc4ccccc4C3)s2)c(C)[nH]c1=O` (stereo not shown) [Example 134, 3-Ethyl-6-methyl-5-{5-[(1,2,3,4-tetrahydro-naphthalen-2-ylamino)-methyl]thiophen-2-yl}-1H-pyridin-2-one hydrochloride]: the IC50 turned out to be 0.8 µM.

As to `CCc1cc(-c2ccc(CNC3CCC3)s2)c(C)[nH]c1=O` [Example 137, 5-(5-Cyclobutylaminomethyl-thiophen-2-yl)-3-ethyl-6-methyl-1H-pyridin-2-one hydrochloride], the half-inhibitory concentration (IC50) was 0.52 µM.

Turning to `CCc1cc(-c2ccc(CNCCOC)s2)c(C)[nH]c1=O` [Example 138, 3-Ethyl-5-{5-[(2-methoxyethylamino)-methyl]thiophen-2-yl}-6-methyl-1H-pyridin-2-one hydrochloride], the concentration for half-maximal inhibition (IC50) was found to be 0.63 µM.

Turning to `CCc1cc(-c2ccc(CNC3CCN(c4nccc(C(F)(F)F)n4)CC3)s2)c(C)[nH]c1=O` [Example 139, dihydrochloride], the half-maximal inhibitory concentration (IC50) amounted to 2.6 µM.

As for `CCc1cc(-c2ccc(CNCC3CCN(Cc4cc(F)cc(F)c4)CC3)s2)c(C)[nH]c1=O` [Example 140, 5-(5-{[1-(3,5-Difluoro-benzyl)-)-piperidin-4-ylmethyl]-amino}methyl-thiophen-2-yl)-3-ethyl-6-methyl-1H-pyridin-2-one hydrochloride], the IC50 amounted to 0.64 µM.

As for `CCc1cc(-c2ccc(CNCCc3ccccn3)s2)c(C)[nH]c1=O` [Example 141, 3-Ethyl-6-methyl-5-{5-[(2-pyridin-2-ylethylamino)methyl]thiophen-2-yl}-1H-pyridin-2-one dihydrochloride], the IC50 stood at 0.54 µM.

As to `CCc1cc(-c2ccc(CNC3CC3)s2)c(C)[nH]c1=O` [Example 142, 5-(5-Cyclopropylaminomethyl-thiophen-2-yl)-3-ethyl-6-methyl-1H-pyridin-2-one hydrochloride], the half-maximal inhibitory concentration (IC50) was found to be 2.1 µM.

On to `CCc1cc(-c2ccc(CNCCC3=CCCCC3)s2)c(C)[nH]c1=O` [Example 144, 5-{5-[(2-Cyclohex-1-enyl-ethylamino)-methyl]thiophen-2-yl}-3-ethyl-6-methyl-1H-pyridin-2-one hydrochloride], for which the concentration for half-maximal inhibition (IC50) was 0.62 µM.

`CCc1cc(-c2ccc(CNc3cc(F)cc(F)c3)s2)c(C)[nH]c1=O` [Example 145, 5-{5-[(3,5-Difluoro-phenylamino)-methyl]thiophen-2-yl}-3-ethyl-6-methyl-1H-pyridin-2-one hydrochloride]: the IC50 came out at 4 µM.

Take `CCc1cc(-c2ccc(CNC(C)C(C)C)s2)c(C)[nH]c1=O` (stereo not shown) [Example 147, 5-{5-[(3-methylbut-2-ylamino)methyl]thiophen-2-yl}-3-ethyl-6-methyl-1H-pyridin-2-one hydrochloride]: the IC50 turned out to be 0.49 µM.

Consider `CCc1cc(-c2ccc(CN3CCC4(CC3)OCCO4)s2)c(C)[nH]c1=O` [Example 149, 5-[5-(1,4-Dioxa-8-aza-spiro[4,5]dec-8-ylmethy)-thiophen-2-yl)-3-ethyl-6-methyl-1H-pyridin-2-one hydrochloride], for which the IC50 was 0.79 µM.

For the compound `CCc1cc(-c2ccc(CN3CCC(=O)CC3)s2)c(C)[nH]c1=O` [Example 150, 3-Ethyl-6-methyl-5-[5-(4-oxo-piperidin-1-ylmethy)-thiophen-2-yl]-1H-pyridin-2-one hydrochloride], the IC50 was 1.3 µM.

As to `CCc1cc(-c2ccc(CNC3CCN(Cc4ccccc4)CC3)s2)c(C)[nH]c1=O` [Example 151, 5-{5-[(1-Benzyl-piperidin-4-ylamino)-methyl]thiophen-2-yl}-3-ethyl-6-methyl-1H-pyridin-2-one dihydrochloride], the IC50 was 0.92 µM.

On to `CCc1cc(-c2ccc(CNCc3ccncc3)s2)c(C)[nH]c1=O` [Example 152, 3-Ethyl-6-methyl-5-{5-{[(pyridin-4-ylmethyl)-amino]-methyl-thiophen-2-yl)-1H-pyridin-2-one dihydrochloride], for which the IC50 turned out to be 0.83 µM.

With `CCc1cc(-c2ccc(CNCCCn3ccnc3)s2)c(C)[nH]c1=O` [Example 153, 3-Ethyl-6-methyl-5-{5-[(3-imidazol-1-yl-propylamino)-methyl]thiophen-2-yl)-1H-pyridin-2-one dihydrochloride], the IC50 came to 0.67 µM.

With `CCc1cc(-c2ccc(CNCCN3CCCC3)s2)c(C)[nH]c1=O` [Example 154, 3-Ethyl-6-methyl-5-{5-{[(2-pyrrolidin-1-ylethylamino)-methyl]thiophen-2-yl)-1H-pyridin-2-one dihydrochloride], the IC50 worked out at 0.53 µM.

In the case of `CCc1cc(-c2ccc(CNCCc3cnc[nH]3)s2)c(C)[nH]c1=O` [Example 155, 3-Ethyl-5-(5-{[(2-(3H-imidazol-4-yl)ethylamino]methyl}thiophen-2-yl)-6-methyl-1H-pyridin-2-one dihydrochloride], the half-inhibitory concentration (IC50) was determined as 0.71 µM.

With `CCc1cc(-c2ccc(CNC3Cc4ccccc4C3)s2)c(C)[nH]c1=O` [Example 156, 3-Ethyl-5-[5-(indan-2-ylaminomethyl)-thiophen-2-yl]-6-methyl-1H-pyridin-2-one hydrochloride], the IC50 amounted to 0.44 µM.

Regarding `CCc1cc(-c2ccc(CNCc3ccccc3)s2)c(C)[nH]c1=O` [Example 157, 5-[5-(Benzylamino-methyl)-thiophen-2-yl]-3-ethyl-6-methyl-1H-pyridin-2-one hydrochloride], the IC50 is 0.6 µM.

Take `CCc1cc(-c2ccc(CNCc3cc(F)cc(F)c3)s2)c(C)[nH]c1=O` [Example 158, 5-[5-(3,5-Difluorobenzylaminomethyl)thiophen-2-yl]-3-ethyl-6-methyl-1H-pyridin-2-one hydrochloride]: the IC50 came out at 0.51 µM.

In the case of `CCc1cc(-c2ccc(CNC3CCN(Cc4ccccc4)C3)s2)c(C)[nH]c1=O` (stereo not shown) [Example 159, 5-{5-[(1-Benzyl-pyrrolidin-3-ylamino)-methyl]-thiophen-2-yl}-3-ethyl-6-methyl-1H-pyridin-2-one dihydrochloride], the IC50 turned out to be 0.72 µM.

For the compound `CCc1cc(-c2ccc(CN3CCC(N4CCCC4)CC3)s2)c(C)[nH]c1=O` [Example 160, 3-Ethyl-6-methyl-5-[5-(4-pyrrolidin-1-ylpiperidin-1-ylmethyl)-thiophen-2-yl]1-1H-pyridin-2-one dihydrochloride], the half-maximal inhibitory concentration (IC50) stood at 1.7 µM.
